The text below walks through data of patent publication US8026269B2, “Isoindoline compounds and methods of making and using the same” (Celgene Corporation, priority 2004, dated 2011).

What is called melting point is the temperature, or range, at which the solid turns liquid.

In turn, `COc1ccc(C(CS(C)(=O)=O)N2C(=O)c3cccc(NC(C)=O)c3C2=O)cc1OCC1CC1` (centres unmarked) [Example 13, N-{2-[1-(3-Cyclopropylmethoxy-4-methoxy-phenyl)-2-methanesulfonyl-ethyl]-1,3-dioxo-2,3-dihydro-1H-isoindol-4-yl}-acetamide] registered a melting point of 102 to 104 °C.

The compound `CCOc1cc(C(CC#N)N2C(=O)c3cccc(NC(N)=O)c3C2=O)ccc1OC` (centres unmarked) [Example 12] had a melting point of 179 to 181.5 °C.

Compound `CCOc1cc([C@@H](CS(C)(=O)=O)N2Cc3cccc(NCC4CC4)c3C2=O)ccc1OC` [Example 4, (1S)-7-(Cyclopropylmethyl-amino)-2-[1-(3-ethoxy-4-methoxyphenyl)-2-methanesulfonyl-ethyl]-2,3-dihydro-isoindol-1-one] showed a melting point of 147 to 149 °C.

The compound `CCOc1cc([C@@H](CS(C)(=O)=O)N2Cc3cccc(NC(=O)N(C)C)c3C2=O)ccc1OC` [Example 16, (1S)-3-{2-[1-(3-Ethoxy-4-methoxy-phenyl)-2-methanesulfonyl-ethyl]-3-oxo-2,3-dihydro-1H-isoindol-4-yl}-1,1-dimethyl-urea] returned a melting point of 170 to 172 °C.

Turning to `CCOc1cc(C(CC#N)N2C(=O)c3ccc4ccccc4c3C2=O)ccc1OC` (centres unmarked) [Example 1, 3-(1,3-Dioxobenzo[e]isoindolin-2-yl)-3-(3-ethoxy-4-methoxyphenyl)propanenitrile], the melting point fell in the range of 163 to 165 °C.

Regarding `CCOc1cc([C@@H](CC(=O)N(C)C)N2Cc3cccc(NCC(C)(C)C)c3C2=O)ccc1OC` [Example 6, (3R)-3-[7-(2,2-Dimethyl-propylamino)-1-oxo-1,3-dihydro-isoindol-2-yl]-3-(3-ethoxy-4-methoxyphenyl)-N,N-dimethyl-propionamide], the melting point lay in the range of 111 to 113 °C.

Turning to `CCOc1cc([C@@H](CS(C)(=O)=O)N2Cc3cccc(NCC(C)C)c3C2=O)ccc1OC` [Example 5, (1S)-2-[1-(3-Ethoxy-4-methoxyphenyl)-2-methanesulfonyl-ethyl]-7-isobutylamino-2,3-dihydro-isoindol-1-one], the melting point fell in the range of 122 to 124 °C.

In turn, `CCOc1cc([C@@H](CS(C)(=O)=O)N2C(=O)c3cccc(NC(=O)COC)c3C2=O)ccc1OC` [Example 3, (1S)—N-{2-[1-(3-ethoxy-4-methoxyphenyl)-2-methanesulfonyl-ethyl]-1,3-dioxo-2,3-dihydro-1H-isoindol-4-yl}-2-methoxy-acetamide] gave a melting point of 151 to 153 °C.

The compound `CCOc1cc(C(CC#N)N2C(=O)c3ccc(NC(N)=O)cc3C2=O)ccc1OC` (centres unmarked) [Example 11] showed a melting point of 163 to 165 °C.

Consider `CCOc1cc([C@@H](CS(C)(=O)=O)N2C(=O)c3cccc(NC(=O)c4ccco4)c3C2=O)ccc1OC` [Example 2, (1S)-Furan-2-carboxylic Acid {2-[1-(3-ethoxy-4-methoxyphenyl)-2-methanesulfonyl-ethyl]-1,3-dioxo-2,3-dihydro-1H-isoindol-4-yl}-amide], for which the melting point is 184 to 186 °C.

In turn, `CCOc1cc([C@@H](CC(=O)N(C)C)N2Cc3cccc(NC(=O)N(C)C)c3C2=O)ccc1OC` [Example 15, (3R)-3-(7-(3,3-Dimethyl-ureido)-1-oxo-1,3-dihydro-isoindol-2-yl}-3-(3-ethoxy-4-methoxy-phenyl)-N,N-dimethyl-propionamide] returned a melting point of 105 to 107 °C.
